# Laboratory results from PubChem BioAssay AID743394 (Broad Institute, 2014).
# Activity calls are given as the source filed them.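 How the source made its calls: active means 40% activation versus positive control reached by fitted dose-response curve at or below highest valid tested dose; inconclusive means poor fit quality, or flat fit with activation between 30% and 70%; inactive means the rest.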
# Assay: inactive X chromosome reactivation in XiGFP fibroblasts, dose response, imaging, 68-5-11 mouse fibroblasts, GFP, cherry-pick (AID 743394);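 further: sensitizer 5-aza-dC present in the wells at 0.5 mM final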
# Conditions: 68-5-11 mouse fibroblast XiGFP reporter, % GFP-positive imaging, 3 d; at 19.5 µM (top of the series)
row,SMILES,activation
1,Cc1cc(/C=C2/C(=O)NC(=O)N(Cc3ccco3)C2=O)c(C)n1-c1ccccc1O,-0.049% (inactive)
2,O=C(Cc1ccccn1)N1CCCCN2[C@H](C1)[C@@H](c1ccc(-c3ccccc3F)cc1)[C@@H]2CO,1.33% (inactive)
3,Cc1ccc2[nH]c(=S)n(-c3cccnc3)c(=O)c2c1,-0.035% (inactive)

# Same assay, conditions: 68-5-11 mouse fibroblast XiGFP reporter, % GFP-positive imaging, 3 d; at 19.5 µM (top of the series); cells co-treated with 5-aza-dC sensitizer; scaled: neutral wells 0, ellipticine wells 100
row,SMILES,activation
1,CCCCn1nnnc1C(c1ccccc1)N1CCN(c2ccc(C)cc2)CC1 (stereo not given),0.03% (inactive)
2,CCOC(=O)C1=c2/c(=C/c3ccncc3)c(N)c(C(=O)OC)n2C(=O)C(c2ccncc2)S1 (stereo not given),0.188% (inactive)
3,COc1ccc(S(=O)(=O)N(C)C[C@H]2OCCCC[C@@H](C)Oc3ccc(NC(=O)NC(C)C)cc3C(=O)N([C@@H](C)CO)C[C@H]2C)cc1,-0.013% (inactive)
4,C[C@@H]1C[C@H]2[C@@H]3CCC4=CC(=O)C=C[C@]4(C)[C@@]3(F)[C@@H](O)C[C@]2(C)[C@H]1C(=O)CO,0.179% (inactive)
5,Cc1nn(-c2ccccc2)c(C)c1N,0.313% (inactive)
6,CCN(CC)S(=O)(=O)c1ccc(Cl)c(NC(=O)COC(=O)c2c(C)noc2C)c1,0.03% (inactive)
7,Cc1nn2c(NCCCN(C)C)c3c(nc2c1-c1ccccc1)CCCC3,0.079% (inactive)
8,C[C@@H]1CN([C@@H](C)CO)C(=O)c2ccccc2-c2ccccc2CO[C@@H]1CN(C)C(=O)Nc1ccc2c(c1)OCO2,0.081% (inactive)
9,COc1ccc2c3c([nH]c2c1)[C@H](CO)N(C(=O)c1cccnc1)CC31CCN(Cc2ccccc2)CC1,0.094% (inactive)
10,CC1=C(Cl)C2=NS(=O)(=O)CCN2C=C1Cl,0.137% (inactive)
11,Cn1c(=O)[nH]c(=O)c2c1nc(SCCN1CCOCC1)n2CCCc1ccccc1,-0.047% (inactive)
12,Oc1cc2c(c(Cl)c1O)CCNCC2c1ccccc1 (stereo not given),-0.008% (inactive)
13,CCOC(=O)Cc1c(C)[nH]n(-c2ccccc2)c1=O,0.085% (inactive)
14,O=[N+]([O-])c1ccc(S(=O)(=O)c2ccccc2)nc1,-0.024% (inactive)
15,Cc1cccc(OCC(=O)N(C)c2c(N)n(Cc3ccccc3)c(=O)[nH]c2=O)c1C,0.012% (inactive)
16,COc1cccc(CNC(=O)c2cc(S(=O)(=O)N3CCCC3)cn2C)c1,0.095% (inactive)
17,C[C@@H]1CN([C@@H](C)CO)C(=O)c2cc(NS(=O)(=O)c3ccccc3)ccc2O[C@@H](C)CCCCO[C@@H]1CN(C)Cc1ccc2c(c1)OCO2,0% (inactive)
18,CC(Sc1nnc(Cc2ccccc2)o1)C(=O)Nc1ccccc1[N+](=O)[O-] (stereo not given),-0.032% (inactive)
19,COc1cc(/C=C/c2ccc3cccc(O)c3n2)cc(OC)c1OC,-0.032% (inactive)
20,COc1ccc(N=Nc2ccc(O)c(P(=O)(c3ccccc3)c3ccccc3)c2)cc1,0.015% (inactive)
21,CC(C)n1c(NCc2cc(Cl)ccc2O)nc2ccccc21,-0.029% (inactive)

row,SMILES,activation
1,COc1ccc2c3c(n(C)c2c1)[C@@H](CO)N(C)CC31CN(C(=O)NC(C)C)C1,-0.012% (inactive)
2,CCCCC(CCC(=O)Nc1ccn(-c2ccccc2)n1)C(=O)O (stereo not given),0% (inactive)
3,Cc1ccc(NC(=O)COc2ccc(-c3nnco3)cc2)cc1S(=O)(=O)N1CCOCC1,-0.044% (inactive)
4,Cc1ccc(-c2csc3nc4c5ccccc5c(NCCCN(C)C)nn4c(=O)c23)cc1,-0.05% (inactive)
5,CCOC(=O)CSc1nnc(CCCCCN2C(=O)c3cccc4cccc(c34)C2=O)o1,0.013% (inactive)
6,O=C(OCc1cccc(F)c1)c1ccc2c(=O)n3c(nc2c1)CCC3,1.02% (inactive)
7,Cc1ccccc1C1c2[nH]c3ccccc3c2CCN1Cc1cccn1-c1ncccn1 (stereo not given),0.097% (inactive)
8,Cn1c(=N)n(CC(=O)c2ccccc2)c2ccccc21,0.105% (inactive)
9,CN(C)CCCNC(=O)/C(=C\c1ccc(-c2ccc(Br)cc2)o1)NC(=O)c1ccccc1,-0.053% (inactive)
10,CO[C@H]1CN(C)C(=O)c2ccc(NC(=O)C3CCCCC3)cc2OC[C@H](C)NC[C@@H]1C,0.017% (inactive)
11,CC1C=NC(S(=O)(=O)N2CC[C@@H]3[C@@H](CO)N(C)c4ccc(-c5ccccc5)cc4[C@@H]32)=N1 (stereo not given in full),0.053% (inactive)
12,CN(C)C(=O)CN1CCN(Cc2nc(CC3CC3)no2)CC1,-0.032% (inactive)
13,COc1ccc(C(=O)Nc2ccc3oc(-c4cccc(F)c4)nc3c2)cc1OC,0.002% (inactive)
14,COc1ccc2c(c1)C(C)=CC(C)(C)N2S(=O)(=O)c1ccc(Br)cc1,0.373% (inactive)
15,CC(C)N1C(=O)C(=O)N(CC(=O)N2CCc3ccccc32)C1=O,-0.031% (inactive)
16,Cc1oc2ccc(NS(=O)(=O)c3cccc4cccnc34)cc2c1C(=O)OC(C)C,0.423% (inactive)
17,Nc1nc(Nc2ccc(Cl)cc2)c(NC=O)c(=O)[nH]1,-0.075% (inactive)
18,Cc1cc(C(=O)NCc2cc(F)cc3c2OCOC3)nn1C,-0.037% (inactive)
19,COc1cc(/C=C/C(=O)c2ccc3c(c2)OCCO3)cc(Br)c1OCC(=O)N(C)C,-0.06% (inactive)
20,Oc1ccc(Cl)cc1C=Nc1ccc2c3c(cccc13)CC2,0.039% (inactive)
21,CCC(=O)OCCNc1cc(Sc2nc3ccccc3[nH]2)c2nonc2c1[N+](=O)[O-],-0.037% (inactive)

row,SMILES,activation
1,CC(OCCN(C)C)C(=O)C12CC3CC(CC(C3)C1)C2 (stereo not given),0.008% (inactive)
2,CC(=O)C1=NN(c2ccc(Cl)cc2)C(c2ccc3c(c2)OCO3)N(C(C)=O)N1C (stereo not given),-0.032% (inactive)
3,CCOc1ccccc1N1C(=O)CC(Sc2nccc(C)n2)C1=O (stereo not given),-0.095% (inactive)
4,COc1ccc(Cl)cc1C(=O)Nc1ccccc1N1CCCCC1,1.48% (inactive)
5,COc1cc(C(=O)NC(=S)Nc2cccc3nc(C)ccc23)cc(OC)c1OC,1% (inactive)
6,Cc1ccccc1NC(=O)c1cn2c(nc3ccccc32)c(C#N)c1C,3.72% (inactive)
7,O=C(OCc1cc(=O)n2c(n1)sc1ccccc12)c1ccc(O)cc1O,0.076% (inactive)
8,O=C(c1nc(SCc2ccc([N+](=O)[O-])cc2)n2ccccc12)C(F)(F)F,0.007% (inactive)
9,CCOc1ccc(C(=O)c2cc([N+](=O)[O-])ccc2N2CCOCC2)cc1,0.569% (inactive)
10,Cc1ccc2[nH]c(C(=O)O)c(NC(=O)[C@@H]3C[C@@H]3c3ccccc3)c2c1,-0.035% (inactive)
11,NC(=S)Nc1ccc(Cl)cc1Cl,-0.001% (inactive)
12,CC(C)(C)C1CCNC(=O)CC1 (stereo not given),0.008% (inactive)
13,COc1ccc(S(=O)(=O)Nc2cccc3c2O[C@H](CN(C)S(=O)(=O)c2cn(C)cn2)[C@H](C)CN([C@H](C)CO)C3=O)cc1,-0.035% (inactive)
14,O=C(O)c1cccnc1C(=O)N1CCc2c([nH]c3ccccc23)C1C(F)(F)F (stereo not given),0.006% (inactive)
15,COc1ccc(-c2ccc(C3[C@@H]4CN(S(=O)(=O)c5ccccc5C)C[C@H]3N4)cc2)cc1 (stereo not given in full),0% (inactive)
16,O=C1c2ccc3c4c(ccc(c24)C(=O)N1c1cccc(O)c1)C(=O)N(c1cccc(O)c1)C3=O,-0.037% (inactive)
17,CC(C)(C)[S@@](=O)N1Cc2cc(C(=O)N3CCCCC3)nc(-c3cccc(-c4cccc(C#N)c4)c3)c2[C@H]1CCO,-0.031% (inactive)
18,Cc1ccc(S(=O)(=O)N2CCOCC2)cc1C(=O)OCC(=O)NC1CCS(=O)(=O)C1 (stereo not given),-0.034% (inactive)
19,COc1ccccc1-c1ccc(/C=N/O)o1,-0.003% (inactive)
20,Cc1ccc(C(=O)NCc2ccccn2)cc1NC1=NC2CS(=O)(=O)CC2S1 (stereo not given),0.151% (inactive)
21,CC(Sc1nnc(-c2ccncc2)n1C)C(=O)Nc1ccc(N2CCOCC2)cc1 (stereo not given),-0.047% (inactive)

row,SMILES,activation
1,CCOC(=O)C1CCN(C(=O)c2ccc(NS(=O)(=O)c3ccc(F)cc3C)cc2)CC1,0.035% (inactive)
2,CC(=O)OCCNc1cc(Sc2nc3ccccc3[nH]2)c2nonc2c1[N+](=O)[O-],-0.034% (inactive)
3,O=C(Nc1c(F)cccc1F)C(c1ccccc1)c1ccccc1,0.013% (inactive)
4,Cc1cc(N)ncc1[N+](=O)[O-],0.508% (inactive)
5,O=C(NCc1ccccc1)c1ccccc1Br,0.035% (inactive)
6,O=C(CCl)N=c1sccn1Cc1ccc(Cl)cc1Cl,0.591% (inactive)
7,O=C(CC1C(=O)Nc2ccccc2N1CC(=O)N1CCCC1)Nc1ccc(Br)cc1 (stereo not given),-0.001% (inactive)
8,COc1ccccc1OCCOc1ccc(/C=C2\C(=N)N3N=C(S(C)(=O)=O)SC3=NC2=O)cc1,0.042% (inactive)
9,CCn1c(Cl)c(C=O)s/c1=N\S(=O)(=O)c1ccccc1,1.44% (inactive)
10,COCCN(C(=O)c1ccc2c(c1)C(=O)N(c1ccccc1Cl)C2=O)c1c(N)n(CC(C)C)c(=O)[nH]c1=O,0.738% (inactive)
11,Cc1n[nH]c(=S)n1/N=C/c1ccc(-c2ccc(Cl)cc2)o1,1.87% (inactive)
12,C=CCNC(=O)N[C@@H](Cc1ccccc1)C(=O)OC,-0.065% (inactive)
13,COc1ccc(CN(C)C[C@H]2OCCCC[C@H](C)Oc3ccc(NC(=O)Nc4ccc(F)cc4)cc3C(=O)N([C@H](C)CO)C[C@H]2C)cc1,0.981% (inactive)
14,Cc1cccc(CS(=O)(=O)Cc2ccc(C(=O)NCc3cccs3)o2)c1,0% (inactive)
15,Nc1ccccc1Sc1ccc(C(F)(F)F)cc1[N+](=O)[O-],0.953% (inactive)
16,CCOC(=O)c1sc(-c2ccc(F)cc2)cc1NC(=O)Nc1ccccc1OC,0.169% (inactive)
17,CC1CCCC(NC(=O)CSc2cccc[n+]2[O-])C1C (stereo not given),0.125% (inactive)
18,C[C@@H]1CCCCO[C@H](CN(C)Cc2ccc3c(c2)OCO3)[C@@H](C)CN([C@H](C)CO)C(=O)c2cc(NS(=O)(=O)c3ccc(F)cc3)ccc2O1,0.107% (inactive)

# Same assay, conditions: 68-5-11 mouse fibroblast XiGFP reporter, % GFP-positive imaging, 3 d; at 21 µM (top of the series); cells co-treated with 5-aza-dC sensitizer; scaled: neutral wells 0, ellipticine wells 100
row,SMILES,activation
1,Cc1cccc(CN(C)C[C@@H]2Oc3ncc(C#Cc4ccccc4)cc3C(=O)N([C@H](C)CO)C[C@@H]2C)c1,-0.035% (inactive)
